According to patent US10316039B2, “P2X3 and/or P2X2/3 compounds and methods” (Asana Biosciences, LLC, priority 2013, dated 2019):

Tested on: thermal hyperalgesia induced by intraplantar Complete Freund's Adjuvant
Assay: CFA-induced inflammatory thermal hyperalgesia (Hargreaves test)
Assay type: in vivo
Details: rat, 60 mg/kg, dosed 48 h after footpad CFA
Procedure: (§1) FIG. 2 illustrates the antihyperalgesic effects of the compound of example 22 in a rat model of inflammatory thermal hyperalgesia induced by an intraplantar injection of Complete Freund's Adjuvant (CFA). Thermal hyperalgesia is manifest as a reduction in the time for foot-withdrawal during irradiation with a painful thermal stimulus. The compound of example 22 was administered at a dose of 60 mg/kg, 48 h after footpad injection of CFA and produced a substantial reversal (77% and 68%) of thermal hyperalgesia when assessed at 1 h and 2 h post-dose, respectively.
as §1, with “5” for “2”, “38” for “22”, “CFA.” for “Complete Freund's Adjuvant (CFA).”, “(50%)” for “(77% and 68%)”, “post-dose.” for “and 2 h post-dose, respectively.”
as §1, with “6” for “2”, “52” for “22”, “CFA.” for “Complete Freund's Adjuvant (CFA).”, “(39%)” for “(77% and 68%)”, “post-dose.” for “and 2 h post-dose, respectively.”
Male Sprague Dawley rats of young adult age group and body weight range of 180-200 g were included in the study. Animals were housed under a 12 h light/dark cycle with food and water ad libitum. The animals underwent acclimatization with the observation chambers of the Hargreaves' apparatus for two days, twice daily for 45-60 min each time prior to initiation of study. Animals were also habituated to the apparatus for 15-30 min before each testing. Thermal hyperalgesia was assessed using the rat plantar test (Ugo Basile, Italy) following a modified method of Hargreaves (1988, “A new and sensitive method for measuring thermal nociception in cutaneous hyperalgesia”, Pain 32: 77-88). […]
Following basal readout of PWL values to the thermal stimulus (PWL measurements described previously), 50 μL of complete Freund's Adjuvant (CFA—1 mg/mL suspension—Sigma, USA, Cat # F5881) was injected subcutaneously into the plantar surface of the right hind (ipsilateral) paw of animals under light isoflurane anesthesia. […]
Next day (day 1) after 20-22 h of CFA injection, PWL of animals were recorded. Mean of three readings are taken as PWL recording of ipsilateral paw of each animal for pre and post CFA basal readout. […]

Compound	reversal of thermal hyperalgesia (assessed 1 h post-dose) [%]	reversal of thermal hyperalgesia (assessed 2 h post-dose) [%]
CC[C@H](NC(=O)c1cc(-n2nncc2C(F)F)c2ncc(-c3ccc(C)s3)n2c1)c1nnc[nH]1 [Example 52]	39	
CCc1cnnn1-c1cc(C(=O)NCc2ccc(C)nc2)cn2c(-c3ccc(C)s3)cnc12 [Example 22]	77	68
C[C@H](NC(=O)c1cc(-n2nncc2C(F)F)c2ncc(-c3ccc(Cl)s3)n2c1)c1nnc[nH]1 [Example 38]	50	
